# Assay results as given in ChEMBL document CHEMBL1152991, “Tetracycline resistance in Ureaplasma spp. and Mycoplasma hominis: prevalence in Bordeaux, France, from 1999 to 2002 and description of two tet(M)-positive isolates of M. hominis susceptible to tetracyclines” (2008).
# Assays:
# Type in all cases: functional
# [1] = system: Metamycoplasma hominis; experiment: Antimicrobial activity against tetracycline-resistant Mycoplasma hominis isolate overexpressing tet(M) gene
# [2] = system: Ureaplasma; experiment: Antimicrobial activity against tetracycline-resistant Ureaplasma sp. isolate overexpressing tet(M) gene
# [3] = system: Metamycoplasma hominis; experiment: Antimicrobial activity against tetracycline-susceptible Mycoplasma hominis isolate 3430 expressing tet(M) gene after 3 passages of drug treatment
# [4] = system: Metamycoplasma hominis; experiment: Antimicrobial activity against tetracycline-susceptible Mycoplasma hominis isolate 3430 expressing tet(M) gene after 10 passages of drug treatment
# [5] = system: Metamycoplasma hominis; experiment: Antimicrobial activity against tetracycline-susceptible Mycoplasma hominis isolate 3425 expressing tet(M) gene after 20 passages of drug treatment
SMILES,MIC [1],MIC [2],MIC [3],MIC [4],MIC [5]
CN(C)[C@@H]1C(O)=C(C(N)=O)C(=O)[C@@]2(O)C(O)=C3C(=O)c4c(O)cccc4[C@@](C)(O)[C@H]3C[C@@H]12 [TETRACYCLINE],32 µg/mL,> 32 µg/mL,,,
C[C@H]1c2cccc(O)c2C(=O)C2=C(O)[C@]3(O)C(=O)C(C(N)=O)=C(O)[C@@H](N(C)C)[C@@H]3[C@@H](O)[C@@H]21.O [DOXYCYCLINE],32 µg/mL,> 32 µg/mL,0.12 µg/mL,32 µg/mL,0.12 µg/mL
CN(C)c1ccc(O)c2c1C[C@H]1C[C@H]3[C@H](N(C)C)C(O)=C(C(N)=O)C(=O)[C@@]3(O)C(O)=C1C2=O [MINOCYCLINE],32 µg/mL,> 32 µg/mL,,,
